These results are taken from patent US20260216172A1, “COMPOUNDS AND METHOD FOR TREATING HIV INFECTION” (The United States of America, as represented by the …, priority 2023, published 2026).

Each structure is given as a SMILES string. Like-named read-outs stand apart in the source and are kept apart here.

Data set [1] is described as follows: Cytotoxicity in PBMCs (XTT). The data set is classed as cell-based. The following applies: human, PHA-P stimulated PBMCs pooled from three donors; PBMCs, line of isolate CMU08 (E); read-out: TC50. The protocol: (§1) (b) Anti-HIV-1 Cytoprotection Assay in PBMCs: PHA-P stimulated PBMCs from three donors were pooled together and re-suspended in fresh tissue culture medium at 1×10^6 cells/ml and plated in the interior wells of a 96 well round bottom microplate at 50 μL/well. A 100 μL volume of 2× concentrations of compound-containing media were transferred to the round-bottom 96-well plate containing the cells in triplicate. Fifty microliters (50 μL) of HIV-1 at a pre-determined dilution was added. Each plate contained cell control wells and virus control wells in parallel with the experimental wells. After 7 days in culture, efficacy was evaluated by measuring the reverse transcriptase in the culture supernatants and the cells were stained with the tetrazolium dye XTT to evaluate cytotoxicity.
as §1, with “This Example illustrates anti-HIV cytoprotection provided by compounds” for “(b) Anti-HIV-1 Cytoprotection Assay”, “accordance with another aspect of the invention, namely in PBMCs.” for “PBMCs:”
Background: Tetrazolium assays rely on reduction of a dye to a coloured formazan, in cell work by metabolically active cells.

The test system of data set [2] is PBMCs. The data set is described as follows: Cytotoxicity in PBMCs (XTT). The data set is classed as cell-based. The following applies: PBMCs, read-out: TC50 (the source's name). The protocol:
as §1
as §1, with “This Example illustrates anti-HIV cytoprotection provided by compounds” for “(b) Anti-HIV-1 Cytoprotection Assay”, “accordance with another aspect of the invention, namely in PBMCs.” for “PBMCs:”

Data set [3] relates to HIV-1 BCF01 (O). The data set is described as follows: Anti-HIV-1 cytoprotection assay in PBMCs, isolate BCF01 (O). The data set is classed as cell-based. The following applies: Human immunodeficiency virus 1, CCR5. The protocol: as §1, with “This Example illustrates anti-HIV cytoprotection provided by compounds” for “(b) Anti-HIV-1 Cytoprotection Assay”, “accordance with another aspect of the invention, namely in PBMCs.” for “PBMCs:”

Data set [4] deals with HIV-1 CMU08 (E). The data set is described as follows: Anti-HIV-1 cytoprotection assay in PBMCs, isolate CMU08 (E). The data set is classed as cell-based. As to conditions: Human immunodeficiency virus 1, PBMC, CXCR4. The protocol: as §1, with “This Example illustrates anti-HIV cytoprotection provided by compounds” for “(b) Anti-HIV-1 Cytoprotection Assay”, “accordance with another aspect of the invention, namely in PBMCs.” for “PBMCs:”

For data set [5], the system named is HIV-1 ZA97009 (C). The data set is described as follows: Anti-HIV-1 cytoprotection assay in PBMCs, isolate ZA97009 (C). The format is cell-based. The following applies: Human immunodeficiency virus 1, CCR5. The protocol: as §1, with “This Example illustrates anti-HIV cytoprotection provided by compounds” for “(b) Anti-HIV-1 Cytoprotection Assay”, “accordance with another aspect of the invention, namely in PBMCs.” for “PBMCs:”

In data set [6] the test system is HIV-1 RW92009 (A). The data set is described as follows: Anti-HIV-1 cytoprotection assay in PBMCs, isolate RW92009 (A). As to conditions: Human immunodeficiency virus 1, PBMC, CXCR4/CCR5. The format is cell-based. The protocol: as §1, with “This Example illustrates anti-HIV cytoprotection provided by compounds” for “(b) Anti-HIV-1 Cytoprotection Assay”, “accordance with another aspect of the invention, namely in PBMCs.” for “PBMCs:”

Data set [7] in a line: Cell viability of uninfected drug control wells, CEM-SS cells (XTT). The format is cell-based. As to conditions: human, read-out: TC50. The method, then: (§2) (a) Anti-HIV Cytoprotection Evaluation: Inhibition of virus-induced cytopathic effects (CPE) and cell viability following HIV replication in CEM-SS cells were measured by the use of XTT tetrazolium dye. CEM-SS cells (2.5×10^3 cells per well) were seeded in 96-well U-bottomed tissue culture plates in RPMI medium supplemented with 10% FBS, 2 mM L-glutamine, 100 U/ml penicillin and 100 μg/ml streptomycin. Serially diluted compounds (6 concentrations) and HIV-1RF diluted to a pre-determined titer to yield 85 to 95% cell killing at 6 days post-infection were be added to the plate. AZT was evaluated in parallel as a positive control. Following incubation at 37° C., 5% CO2 for six days, cell viability was measured by XTT staining. The optical density of the cell culture plate will be determined spectrophotometrically at 450 and 650 nm using Softmax Pro 4.6 software. Percent CPE reduction of the virus-infected wells and the percent cell viability of uninfected drug control wells was calculated to define the EC50, TC50 and therapeutic index (TI50) using Microsoft Excel Xlfit4.
as §2, with “Inhibition” for “(a) Anti-HIV Cytoprotection Evaluation: Inhibition”, “by” for “by the use of”, “wells were” for “wells was”

For data set [8], the system named is HIV-1RF. The experiment in a line: Anti-HIV cytoprotection evaluation in CEM-SS cells (CPE inhibition, XTT). The format is cell-based. The following applies: Human immunodeficiency virus 1, 144 h, 6 days. The method, then: as §2
as §2, with “Inhibition” for “(a) Anti-HIV Cytoprotection Evaluation: Inhibition”, “by” for “by the use of”, “wells were” for “wells was”

The subject of data set [9] is HIV-1 HT92599 (B). The data set is described as follows: Anti-HIV-1 cytoprotection assay in PBMCs, isolate HT92599 (B). The data set is classed as cell-based. The following applies: Human immunodeficiency virus 1, PBMC, CXCR4. The method, then:
as §1, with “This Example illustrates anti-HIV cytoprotection provided by compounds” for “(b) Anti-HIV-1 Cytoprotection Assay”, “accordance with another aspect of the invention, namely in PBMCs.” for “PBMCs:”

Data set [10] has as its system HIV-1 UG92001 (D). The data set is described as follows: Anti-HIV-1 cytoprotection assay in PBMCs, isolate UG92001 (D). The format is cell-based. As to conditions: Human immunodeficiency virus 1, PBMC, CXCR4/CCR5. The protocol:
as §1, with “This Example illustrates anti-HIV cytoprotection provided by compounds” for “(b) Anti-HIV-1 Cytoprotection Assay”, “accordance with another aspect of the invention, namely in PBMCs.” for “PBMCs:”

Data set [11] has as its system HIV-1 RU132 (G). The data set is described as follows: Anti-HIV-1 cytoprotection assay in PBMCs, isolate RU132 (G). The data set is classed as cell-based. As to conditions: Human immunodeficiency virus 1, CCR5. The protocol: as §1, with “This Example illustrates anti-HIV cytoprotection provided by compounds” for “(b) Anti-HIV-1 Cytoprotection Assay”, “accordance with another aspect of the invention, namely in PBMCs.” for “PBMCs:”

Data set [12] in a line: Pharmacokinetic study in male CD-1 mice. The data set is classed as in vivo. As to conditions: single IV bolus 5 mg/kg of compound 17, male CD-1 mice. The protocol:
Male CD-1 mice weighing between […] were dosed via orbital sinus injection and blood was collected via submandibular vein. IV dosing solutions were prepared in DMSO:PEG400:Saline (5:35:60, v/v/v) at 1 mg/mL concentration of the prodrug. Blood samples (50 μL each time point) were obtained via Culex at predetermined time points (0, 5, 15, 30, 60, 120, 240, 360, 480 and 1440 min) after dosing. Plasma was obtained by centrifugation within 30 minutes after collection and aliquots of dosing solutions were taken and analyzed at the same time with plasma samples using a validated LC-MS/MS method developed on a Shimadzu HPLC system interfaced to a Sciex QTRAP 5500 mass spectrometer. Eluents were gradient mixtures of water and acetonitrile with 0.10% formic acid. HPLC column was ACE 5 C8, 50×2.1 mm, […]. PK parameters of the analytes were obtained using Phoenix®, WinNonlin® software (version 8.1).
The study was performed in male CD-1 mice to assess pharmacokinetics (PK) of prodrug 17 and its metabolites 18 and 19.

In data set [13] the test system is HIV-1 BR93020 (F). The experiment in a line: Anti-HIV-1 cytoprotection assay in PBMCs, isolate BR93020 (F). The format is cell-based. As to conditions: Human immunodeficiency virus 1, CCR5. The protocol: as §1, with “This Example illustrates anti-HIV cytoprotection provided by compounds” for “(b) Anti-HIV-1 Cytoprotection Assay”, “accordance with another aspect of the invention, namely in PBMCs.” for “PBMCs:”

What is called EC50 is the concentration at which the effect is half-maximal. Read a high EC50 as a need for much substance. As usually defined, the clearance is a measure of how efficiently the substance is removed, as volume per time. As to `CCCC(=O)OCSc1ccccc1C(=O)NCCn1cc(C(=O)NCc2cccc(C)n2)c(=O)c2cc3c(cc21)OC(F)(F)O3` [Compound 17, ((2-((2-(2,2-difluoro-7-(((6-methylpyridin-2-yl)methyl)carbamoyl)-8-oxo-[1,3]dioxolo[4,5-g]quinolin-5(8H)-yl)ethyl)carbamoyl)phenyl)thio)methyl butyrate], in data set [1], the CC50 at 7 days was > 100 µM. Also, the CC50 in [2] (line of isolate BCF01 (O)), in [2] (line of isolate BR93020 (F)), in data set [2] (line of isolate HT92599 (B)), in [2] (line of isolate RU132 (G)), in [2] (line of isolate RW92009 (A)) and in data set [2] (line of isolate UG92001 (D)) was > 100 µM in each case. Moreover, in [2] (line of isolate ZA97009 (C)), the CC50 is > 100 µM. Further, the concentration giving a half-maximal response (EC50) in data set [3] is 7.79 µM; in data set [4], 5.23 µM; in [5] it was 10.7 µM; in [6], 4.26 µM; in data set [8], 1.48 µM; in data set [9], 6.52 µM. Moreover, the figures for the EC50 in data set [10], in data set [11] and in data set [13] were 5.14 µM, 6.85 µM and 2.01 µM, respectively. In addition, the CC50 at 6 days in data set [7] was > 100 µM. In addition, the clearance in data set [12] (mouse, in vivo) is 136 mL/min/kg. The compound further gave a C0 in data set [12] (mouse, in vivo, plasma) of 1910 ng/mL. In addition, the Vd in data set [12] (mouse, in vivo, read-out: Vss) came to 9.6 L/kg. For the same compound, the tlast in [12] (plasma, 18 and 19 measured as metabolites) came to 8.00 h.
